Experimental findings from patent publication US20130129595A1 (SOLVAY SA, priority 2010, published 2013) are described below.

This data set can be described thus: Solubility of LiPO2F2, LiF and LiPF6 in organic solvents.

On to `[F-].[Li+]` [LiF], for which the “Solubility (in words)” value is “very low solubility” (in acetone); “only very sparingly soluble” (in aprotic organic solvents); “at most in negligible amounts” (in dimethoxyethane); “essentially insoluble” (in dimethyl carbonate and propylene carbonate).
`F[P-](F)(F)(F)(F)F.[Li+]` [LiPF6]: the “Solubility (in words)” value (in aprotic organic solvents) is “comparably good solubility”.
